For experiment [1], the system named is Phakopsora pachyrhizi. The experiment can be described thus: Fungicidal activity, soybean leaf disc preventative (Asian soybean rust). Format: in vivo. The conditions noted are these: foliar, 200 ppm in the applied formulation, soybean leaf disks, compared to untreated control, 12 to 14 days after application, read-out: disease control. As for the experimental part: Leaf disks or leaf segments of various plant species are cut from plants grown in a greenhouse. The cut leaf disks or segments are placed in multiwell plates (24-well format) onto water agar. The leaf disks are sprayed with a test solution before (preventative) or after (curative) inoculation. Compounds to be tested are prepared as DMSO solutions (max. 10 mg/ml) which are diluted to the appropriate concentration with 0.025% Tween20 just before spraying. The inoculated leaf disks or segments are incubated under defined conditions (temperature, relative humidity, light, etc.) according to the respective test system. A single evaluation of disease level is carried out 3 to 14 days after inoculation, depending on the pathosystem. Percent disease control relative to the untreated check leaf disks or segments is then calculated.
Soybean leaf disks are placed on water agar in multiwell plates (24-well format) and sprayed with the formulated test compound diluted in water. One day after application leaf discs are inoculated by spraying a spore suspension on the lower leaf surface. After an incubation period in a climate cabinet of 24-36 hours in darkness at 20° C. and 75% rh leaf disc are kept at 20° C. with 12 h light/day and 75% rh. The activity of a compound is assessed as percent disease control compared to untreated when an appropriate level of disease damage appears in untreated check leaf disks (12 to 14 days after application).
The following compounds at 200 ppm in the applied formulation give at least 80% disease control in this test when compared to untreated control leaf disks under the same conditions, which show extensive disease development.

Experiment [2] has as its system Glomerella lacenarium (Colletotrichum lacenarium). The experiment can be described thus: Fungicidal activity, liquid culture, cucumber preventative (anthracnose). The class given is cell-based. Particulars: 20 ppm in the applied formulation, liquid culture in PDB, inhibition of growth measured photometrically 3 to 4 days after application, compared to untreated control, read-out: disease control. In a few lines: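 Photometric measurement of fungal growth inhibition 3 to 4 days after application gives percent activity relative to untreated check. Conidia were suspended in potato dextrose broth and combined with DMSO compound solutions; incubation at 24° C.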

For experiment [3], the system named is Puccinia recondita f. Sp. Tritici. As to the kind of experiment: Fungicidal activity, wheat leaf disc preventative (brown rust). The class given is in vivo. Particulars: foliar, 200 ppm in the applied formulation, wheat leaf segments cv. Kanzler, compared to untreated control, 7 to 9 days after application, read-out: disease control. In a few lines: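 Wheat cv. Kanzler leaf segments on agar were sprayed with formulated compound in water, then inoculated with spores 1 day later. Incubated at 19° C, 75% rh, 12 h light/12 h dark; percent disease control versus untreated scored 7 to 9 days after application.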

For experiment [4] the test system is unchanged. As to the kind of experiment: Fungicidal activity, wheat leaf disc curative (brown rust). The class given is in vivo. Particulars: foliar, 200 ppm in the applied formulation, wheat leaf segments cv. Kanzler, curative (applied 1 day after inoculation), compared to untreated control, 6 to 8 days after application, read-out: disease control. In a few lines:
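Read-out is percent disease control relative to untreated segments, assessed 6 to 8 days after treatment once check disease is adequate. Kanzler wheat leaf segments on agar receive fungal spores, then test compound (DMSO stock diluted in 0.025% Tween20 or water) 1 day later, under 19° C and 75% relative humidity.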

Take `CON(Cc1ccc(-c2noc(C(F)(F)F)n2)s1)C(=O)C(C)C` [Compound 1.26, N-methoxy-2-methyl-N-[[5-[5-(trifluoromethyl)-1,2,4-oxadiazol-3-yl]-2-thienyl]methyl]propanamide]: the pest or weed control at 200 ppm in experiment [1] and in experiment [3] was at least 80% in each case. The inhibition of growth at 20 ppm in experiment [2] was at least 80%.

Turning to `CC(=O)NCC(=O)NCc1ccc(-c2noc(C(F)(F)F)n2)s1` [Compound 2.2, 2-acetamido-N-[[5-[5-(trifluoromethyl)-1,2,4-oxadiazol-3-yl]-2-thienyl]methyl]acetamide], in experiment [1], the pest or weed control at 200 ppm is at least 80%.

In the case of `CCN(Cc1ccc(-c2noc(C(F)(F)F)n2)s1)C(=O)COC` [Compound 4.22, N-ethyl-2-methoxy-N-[[5-[5-(trifluoromethyl)-1,2,4-oxadiazol-3-yl]-2-thienyl]methyl]acetamide], the pest or weed control at 200 ppm in experiment [1] and in experiment [3] was at least 80% in each case. Further, the inhibition of growth at 20 ppm in experiment [2] was at least 80%.

For the compound `CCN(Cc1ccc(-c2noc(C(F)(F)F)n2)s1)C(C)=O` [Compound 4.31, N-ethyl-N-[[5-[5-(trifluoromethyl)-1,2,4-oxadiazol-3-yl]-2-thienyl]methyl]acetamide], the pest or weed control at 200 ppm in experiment [1] and in experiment [3] was at least 80% in each case. Moreover, in experiment [2], the inhibition of growth at 20 ppm is at least 80%.

For the compound `CCN(Cc1ccc(-c2noc(C(F)(F)F)n2)s1)S(=O)(=O)CC` [Compound 6.14, N-ethyl-N-[[5-[5-(trifluoromethyl)-1,2,4-oxadiazol-3-yl]-2-thienyl]methyl]ethanesulfonamide], the pest or weed control at 200 ppm in experiment [1] was at least 80%. For the same compound, the inhibition of growth at 20 ppm in experiment [2] is at least 80%.

As for `CN(Cc1ccc(-c2noc(C(F)(F)F)n2)s1)C(=O)C(=O)C(C)(C)C` [Compound 6.48, N,3,3-trimethyl-2-oxo-N-[[5-[5-(trifluoromethyl)-1,2,4-oxadiazol-3-yl]-2-thienyl]methyl]butanamide], the pest or weed control at 200 ppm in experiment [4] and in experiment [3] was at least 80% each time. Moreover, the inhibition of growth at 20 ppm in experiment [2] is at least 80%.

As to `CCC(=O)C(=O)N(C)Cc1ccc(-c2noc(C(F)(F)F)n2)s1` [Compound 6.49, N-methyl-2-oxo-N-[[5-[5-(trifluoromethyl)-1,2,4-oxadiazol-3-yl]-2-thienyl]methyl]butanamide], the pest or weed control at 200 ppm in experiment [4] and in experiment [3] was at least 80% each time. Also, in experiment [2], the inhibition of growth at 20 ppm is at least 80%.

`CC(C)CC(=O)C(=O)N(C)Cc1ccc(-c2noc(C(F)(F)F)n2)s1` [Compound 6.51, N,4-dimethyl-2-oxo-N-[[5-[5-(trifluoromethyl)-1,2,4-oxadiazol-3-yl]-2-thienyl]methyl]pentanamide]: the pest or weed control at 200 ppm in experiment [4] and in experiment [3] was at least 80% throughout. In addition, in experiment [2], the inhibition of growth at 20 ppm is at least 80%.

In the case of `CN(Cc1ccc(-c2noc(C(F)(F)F)n2)s1)C(=O)C(=O)c1cccs1` [Compound 6.52, N-methyl-2-oxo-2-(2-thienyl)-N-[[5-[5-(trifluoromethyl)-1,2,4-oxadiazol-3-yl]-2-thienyl]methyl]acetamide], the pest or weed control at 200 ppm in experiment [4] and in experiment [3] was at least 80% throughout. Moreover, the inhibition of growth at 20 ppm in experiment [2] was at least 80%.

As to `CCC(=O)C(=O)N(Cc1ccc(-c2noc(C(F)(F)F)n2)s1)C1CC1` [Compound 6.56, N-cyclopropyl-2-oxo-N-[[5-[5-(trifluoromethyl)-1,2,4-oxadiazol-3-yl]-2-thienyl]methyl]butanamide], the pest or weed control at 200 ppm in experiment [4] and in experiment [3] was at least 80% in each case. Further, the inhibition of growth at 20 ppm in experiment [2] is at least 80%.

In the case of `O=C(Cc1ccccc1)C(=O)N(Cc1ccc(-c2noc(C(F)(F)F)n2)s1)C1CC1` [Compound 6.57, N-cyclopropyl-2-oxo-3-phenyl-N-[[5-[5-(trifluoromethyl)-1,2,4-oxadiazol-3-yl]-2-thienyl]methyl]propanamide], the pest or weed control at 200 ppm in experiment [4] and in experiment [3] was at least 80% in each case. The inhibition of growth at 20 ppm in experiment [2] is at least 80%.

(Values after patent US20200187502A1, “MICROBIOCIDAL OXADIAZOLE DERIVATIVES” (SYNGENTA PARTICIPATIONS AG, priority 2017, published 2020).)
